# Source: ChEMBL document CHEMBL1137485, “Design, synthesis, and biological testing of pyrazoline derivatives of combretastatin-A4” (Bioorg Med Chem Lett, 2007)
# Experiments:
# L1210 = assay: Cytotoxicity against mouse L1210 cells after 72 hrs by MTT assay; format: functional, cell-based; conditions: L1210, 72 h
# B16 = assay: Cytotoxicity against mouse B16 cells after 72 hrs by MTT assay; format: functional, cell-based; conditions: B16, 72 h
# A10 [1] = assay: Reduction of microtubules in human A10 cells at 40 uM; format: functional; design: scale not given: the % may be the effect or the level left
# A10 [2] = assay: Reduction of microtubules in […] A10 cells; format: functional, cell-based; conditions: Rattus norvegicus
Compound,IC50 (L1210) [µM],IC50 (B16) [µM],Activity (A10 [1]) [%],EC50 (A10 [2]) [µM]
COc1ccc(C2CC(c3cc(OC)c(OC)c(OC)c3)=NN2)cc1OC (stereo not drawn),42,44,–,–
COc1cc(C2=NNC(c3cc(OC)c(OC)c(OC)c3)C2)cc(OC)c1OC (stereo not drawn),24,56,–,–
COc1cccc(C2CC(c3cc(OC)c(OC)c(OC)c3)=NN2C(C)=O)c1 (stereo not drawn),44,> 100,–,–
COc1ccc(OC)c(C2CC(c3cc(OC)c(OC)c(OC)c3)=NN2C(C)=O)c1 (stereo not drawn),> 100,> 100,–,–
COc1ccc(OC)c(C2=NN(C(C)=O)C(c3ccc(OC)c([N+](=O)[O-])c3)C2)c1 (stereo not drawn),40,58,–,–
COc1ccc(C2CC(c3cc(OC)c(OC)c(OC)c3)=NN2C(C)=O)cc1O (stereo not drawn),> 100,> 100,10,–
COc1cc(OC)c(C2CC(c3cc(OC)ccc3OC)=NN2C(C)=O)c(OC)c1 (stereo not drawn),33,69,–,–
COc1ccc(C2CC(c3cc(OC)c(OC)c(OC)c3)=NN2C(C)=O)cc1[N+](=O)[O-] (stereo not drawn),52,> 100,–,–
COc1cc(C2=NN(C(C)=O)C(c3ccc([N+](=O)[O-])cc3)C2)cc(OC)c1OC (stereo not drawn),42,51,–,–
COc1ccc(OC)c(C2=NN(C(C)=O)C(c3ccc(OC)c(OC)c3)C2)c1 (stereo not drawn),28,62,–,–
COc1ccccc1C1CC(c2cc(OC)c(OC)c(OC)c2)=NN1C(C)=O (stereo not drawn),43,> 100,–,–
COc1ccc(C2CC(c3cc(OC)c(OC)c(OC)c3)=NN2)cc1O (stereo not drawn),0.5,2.1,–,7.1
COc1cc(C2=NN(C(C)=O)C(c3ccc(Cl)cc3)C2)cc(OC)c1OC (stereo not drawn),30,35,–,–
